Tests used:
glioma cell lines [1] = experiment: clonogenic survival assay; type: cell-based; conditions: combination with regorafenib vs regorafenib monotherapy
glioma cell lines [2] = experiment: 72-hour acute cytotoxicity synergy assay in combination with regorafenib (ZIP synergy score); type: cell-based
Method: The combined inhibition of a resistance mechanism or a synthetic lethal interactor with regorafenib treatment should enhance the effect of regorafenib alone. Therefore, drugs targeting the different identified gene products were used in acute cytotoxicity synergy assays in combination with regorafenib to analyze the synergistic effect of drug combinations. Each of the 15 drugs was tested in a 72-hour acute cytotoxicity synergy assay in combination with regorafenib on six glioma cell lines in two independent runs. The calculated ZIP synergy score for each combination indicates if a combination is synergistic, the higher the score the stronger is the synergism. For the heatmaps shown in Fig. 3 the synergy scores were normalized within each cell line taking the highest synergy score detected in this cell line as 100% and a synergy score of 0 as 0%. For each target shown here identified in the CRISPR/Cas9 screens, the inventors detected a synergistic effect of the drug combination (for at least one drug when several drugs for the same target were tested).

SMA560 cells = experiment: in vivo glioma model, intracranially transplanted SMA560 cells; conditions: VM/Dk mice intracranially transplanted with SMA560 cells; treated for three weeks; experiment stopped at day 120; solvent control 58 days
Method: For drugs targeting Bcl2 family members (navitoclax, venetoclax), MEK1/MAP2K1 (selumetinib, trametinib), integrins (cilengitide), and ARAF (sorafenib) further assays were performed to analyze the synergistic effect in combination with Regorafenib. […] The inventors extracted primary cells from glioblastoma tissue to test our drug combinations ex vivo. Analyzing the combination effect on cell viability of regorafenib and navitoclax on four glioblastoma primary cultures the observed effect of the combination treatment was in each model synergistic compared to the predicted effect calculated from both monotherapies (Figs. 4 E and F). The combination of navitoclax and regorafenib was further validated in vivo in VM/Dk mice intracranially transplanted with SMA560 cells (data not shown). The mice were treated either with the drug combination, regorafenib, or navitoclax monotherapies, or a solvent control for three weeks. Time until onset of neurological symptoms was observed. The solvent control group reached its median after 58 days, navitoclax monotherapy after 60 days, and regorafenib monotherapy after 67 days.

Row | Compound | number of clones in clonogenic survival assays, combination treatment compared with regorafenib monotherapy (glioma cell lines [1]) | synergistic effect in acute cytotoxicity synergy assays (ZIP synergy score) (glioma cell lines [2]) | Time until onset of neurological symptoms (median) (SMA560 cells) [days]
1 | CC1(C)CCC(c2ccc(Cl)cc2)=C(CN2CCN(c3ccc(C(=O)NS(=O)(=O)c4ccc(N[C@H](CCN5CCOCC5)CSc5ccccc5)c(S(=O)(=O)C(F)(F)F)c4)cc3)CC2)C1 [navitoclax] | significantly reduced numbers of clones | synergistic effects | 60
2 | CNC(=O)c1cc(Oc2ccc(NC(=O)Nc3ccc(Cl)c(C(F)(F)F)c3)c(F)c2)ccn1 [regorafenib] |  |  | 67
3 | CC1(C)CCC(CN2CCN(c3ccc(C(=O)NS(=O)(=O)c4ccc(NCC5CCOCC5)c([N+](=O)[O-])c4)c(Oc4cnc5[nH]ccc5c4)c3)CC2)=C(c2ccc(Cl)cc2)C1 [venetoclax] |  | synergistic effects | 
